Assay results published in PMC13210772, “Dual FLT3/MAPK14 Proteolysis-Targeting Chimera (PROTAC) Induces Potent Acute Myeloid Leukemia Cell Death” (Pharmaceuticals, 2026).

Assays:
Assay in all cases: NanoBRET CELLinib128
Assay type in all cases: binding
[1] = biological target: T1, AURKB (Homo sapiens, UniProt Q96GD4); conditions: 100% no effect, 0% complete tracer displacement, read-out: Tracer bound
T1 construct: Full-length kinase ORF (Promega, Madison, WI, USA) cloned in frame with a NanoLuc-vector was transfected into HEK293T cells; host or cells: HEK293T
T1 sequence (Q96GD4 whole entry): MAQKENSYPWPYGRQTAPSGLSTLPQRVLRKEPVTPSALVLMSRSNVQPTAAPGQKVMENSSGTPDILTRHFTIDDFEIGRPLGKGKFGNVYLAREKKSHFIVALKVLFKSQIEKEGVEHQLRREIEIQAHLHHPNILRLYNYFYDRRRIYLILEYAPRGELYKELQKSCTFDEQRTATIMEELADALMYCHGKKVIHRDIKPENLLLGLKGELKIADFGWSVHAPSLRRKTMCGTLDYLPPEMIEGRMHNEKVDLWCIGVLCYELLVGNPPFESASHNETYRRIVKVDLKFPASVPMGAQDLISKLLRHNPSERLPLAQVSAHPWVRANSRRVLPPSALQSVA
Description: (§1) To get an impression about the binding strength of the PROTAC MA191 and the reference inhibitor MA68 to other kinases besides FLT3-ITD the binding on a kinase panel of further 128 representative protein kinases at 1 μM concentration was tested using the NanoBRET^TM cellular target engagement assay (CELLinib128 assay, CELLinib GmbH, Frankfurt, Germany). […] In none of the 128 kinases MA191 was able to displace the tracer (inhibitor) used by more than 50%, Table S1, Supplementary Information).
(§2) The CELLinib128 assay was performed by CELLinib GmbH, Frankfurt (Germany) as described previously. In brief: Full-length kinase ORF (Promega, Madison, WI, USA) cloned in frame with a NanoLuc-vector was transfected into HEK293T cells in Opti-MEM without phenol red (Life Technologies, Carlsbad, CA, USA) at a density of 2 × 10^5 cells/mL using FuGENE HD (Promega, E2312) and proteins were allowed to express for 20 h. For CDKs, where indicated below, an excess of an activator without an NLuc-fusion was cotransfected. […] The system was allowed to equilibrate at 37 °C for 2 h and 5% CO2 prior to BRET measurements. For PKCs, a chemical activator PMA was added in a final concentration of 1 µM was added together with test compounds and tracers (Promega, V1171). To measure BRET, NanoBRET^TM NanoGlo substrate + extracellular NanoLuc inhibitor (Promega, N2160) were added as per the manufacturer’s protocol, and filtered luminescence was measured (450 nm BP filter (donor) and 610 nm LP filter (acceptor)). For the 1-shot test compounds, data were normalized to the tracer control and the background control or control compound plateau and an average and SD were calculated. […] For the control compounds competitive displacement data were normalized to the tracer Ctrl and the background Ctrl and then plotted and fitted using GraphPad Prism 10 software using a normalized 3-parameter curve fit with the following equation: Y = 100/(1 + 10^X−LogIC50).

[2] = biological target: T2, AURKC (Homo sapiens, UniProt Q9UQB9); conditions: 100% no effect, 0% complete tracer displacement, read-out: Tracer bound
T2 construct: Full-length kinase ORF (Promega, Madison, WI, USA) cloned in frame with a NanoLuc-vector was transfected into HEK293T cells; host or cells: HEK293T
T2 sequence (Q9UQB9 whole entry): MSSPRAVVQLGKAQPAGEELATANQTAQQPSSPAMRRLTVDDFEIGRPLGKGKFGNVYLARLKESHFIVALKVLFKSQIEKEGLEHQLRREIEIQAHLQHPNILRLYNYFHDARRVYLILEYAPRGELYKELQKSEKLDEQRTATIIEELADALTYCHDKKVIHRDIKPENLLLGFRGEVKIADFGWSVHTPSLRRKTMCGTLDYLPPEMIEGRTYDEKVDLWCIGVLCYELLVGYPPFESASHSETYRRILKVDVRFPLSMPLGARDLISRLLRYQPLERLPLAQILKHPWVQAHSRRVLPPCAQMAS
Description: as §1, §2

[3] = biological target: T3, CAMK2A (Homo sapiens, UniProt Q9UQM7); conditions: 100% no effect, 0% complete tracer displacement, read-out: Tracer bound
T3 construct: Full-length kinase ORF (Promega, Madison, WI, USA) cloned in frame with a NanoLuc-vector was transfected into HEK293T cells; host or cells: HEK293T
Description: as §1, §2

[4] = biological target: T4, CDK17-CCNY (Homo sapiens, UniProt Q00537); conditions: 100% no effect, 0% complete tracer displacement, read-out: Tracer bound
T4 construct: Full-length kinase ORF (Promega, Madison, WI, USA) cloned in frame with a NanoLuc-vector was transfected into HEK293T cells; host or cells: HEK293T
Description: as §1, §2

[5] = biological target: T5, CDK5-CDK5R2 (Homo sapiens, UniProt Q00535); conditions: 100% no effect, 0% complete tracer displacement, read-out: Tracer bound
T5 construct: Full-length kinase ORF (Promega, Madison, WI, USA) cloned in frame with a NanoLuc-vector was transfected into HEK293T cells; host or cells: HEK293T
Description: as §1, §2

[6] = biological target: T6, CSNK1G2 (Homo sapiens, UniProt P78368); conditions: 1 µM; 100% no effect, 0% complete tracer displacement
T6 construct: Full-length kinase ORF (Promega, Madison, WI, USA) cloned in frame with a NanoLuc-vector was transfected into HEK293T cells; host or cells: HEK293T
T6 sequence (P78368 whole entry): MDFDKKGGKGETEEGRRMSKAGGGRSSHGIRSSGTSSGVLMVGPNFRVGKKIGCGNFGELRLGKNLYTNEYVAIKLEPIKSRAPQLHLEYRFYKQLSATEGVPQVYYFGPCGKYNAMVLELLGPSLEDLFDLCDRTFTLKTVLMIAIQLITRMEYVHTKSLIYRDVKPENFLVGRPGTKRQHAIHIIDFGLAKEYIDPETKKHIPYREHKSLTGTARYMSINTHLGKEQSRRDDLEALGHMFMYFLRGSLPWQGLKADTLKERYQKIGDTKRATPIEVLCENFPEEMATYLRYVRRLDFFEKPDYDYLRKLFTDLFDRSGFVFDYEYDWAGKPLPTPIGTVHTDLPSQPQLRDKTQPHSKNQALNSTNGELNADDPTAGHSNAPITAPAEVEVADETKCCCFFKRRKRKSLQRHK
Description: as §1, §2

[7] = biological target: T7, CSNK2A2 (Homo sapiens, UniProt P19784); conditions: 100% no effect, 0% complete tracer displacement, read-out: Tracer bound
T7 construct: Full-length kinase ORF (Promega, Madison, WI, USA) cloned in frame with a NanoLuc-vector was transfected into HEK293T cells; host or cells: HEK293T
T7 sequence (P19784 whole entry): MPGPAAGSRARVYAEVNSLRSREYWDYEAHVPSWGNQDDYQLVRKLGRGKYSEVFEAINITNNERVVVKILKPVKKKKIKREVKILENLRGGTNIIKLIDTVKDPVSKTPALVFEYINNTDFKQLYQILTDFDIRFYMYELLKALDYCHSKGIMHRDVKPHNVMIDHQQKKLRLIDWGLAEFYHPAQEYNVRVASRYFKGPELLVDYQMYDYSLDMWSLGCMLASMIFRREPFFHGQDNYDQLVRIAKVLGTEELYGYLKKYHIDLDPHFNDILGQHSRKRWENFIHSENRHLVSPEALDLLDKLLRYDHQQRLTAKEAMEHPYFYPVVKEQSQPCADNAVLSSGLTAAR
Description: as §1, §2

[8] = biological target: T8, DCLK3 (Homo sapiens, UniProt Q9C098); conditions: 100% no effect, 0% complete tracer displacement, read-out: Tracer bound
T8 construct: Full-length kinase ORF (Promega, Madison, WI, USA) cloned in frame with a NanoLuc-vector was transfected into HEK293T cells; host or cells: HEK293T
Description: as §1, §2

[9] = biological target: T9, ERN2 (Homo sapiens, UniProt Q76MJ5); conditions: 100% no effect, 0% complete tracer displacement, read-out: Tracer bound
T9 construct: Full-length kinase ORF (Promega, Madison, WI, USA) cloned in frame with a NanoLuc-vector was transfected into HEK293T cells; host or cells: HEK293T
Description: as §1, §2

[10] = biological target: T10, FGFR1 (Homo sapiens, UniProt P11362); conditions: 100% no effect, 0% complete tracer displacement, read-out: Tracer bound
T10 construct: Full-length kinase ORF (Promega, Madison, WI, USA) cloned in frame with a NanoLuc-vector was transfected into HEK293T cells; host or cells: HEK293T
Description: as §1, §2

[11] = biological target: T11, MAP3K9 (Homo sapiens, UniProt P80192); conditions: 100% no effect, 0% complete tracer displacement, read-out: Tracer bound
T11 construct: Full-length kinase ORF (Promega, Madison, WI, USA) cloned in frame with a NanoLuc-vector was transfected into HEK293T cells; host or cells: HEK293T
Description: as §1, §2

[12] = biological target: T12, MAP4K1 (Homo sapiens, UniProt Q92918); conditions: 100% no effect, 0% complete tracer displacement, read-out: Tracer bound
T12 construct: Full-length kinase ORF (Promega, Madison, WI, USA) cloned in frame with a NanoLuc-vector was transfected into HEK293T cells; host or cells: HEK293T
Description: as §1, §2

[13] = biological target: T13, MAPK6 (Homo sapiens, UniProt Q16659); conditions: 100% no effect, 0% complete tracer displacement, read-out: Tracer bound
T13 construct: Full-length kinase ORF (Promega, Madison, WI, USA) cloned in frame with a NanoLuc-vector was transfected into HEK293T cells; host or cells: HEK293T
Description: as §1, §2

[14] = biological target: T14, MLTK (Homo sapiens, UniProt Q9NYL2); conditions: 100% no effect, 0% complete tracer displacement, read-out: Tracer bound
T14 construct: Full-length kinase ORF (Promega, Madison, WI, USA) cloned in frame with a NanoLuc-vector was transfected into HEK293T cells; host or cells: HEK293T
Description: as §1, §2

[15] = biological target: T15, MUSK (Homo sapiens, UniProt O15146); conditions: 100% no effect, 0% complete tracer displacement, read-out: Tracer bound
T15 construct: Full-length kinase ORF (Promega, Madison, WI, USA) cloned in frame with a NanoLuc-vector was transfected into HEK293T cells; host or cells: HEK293T
Description: as §1, §2

[16] = biological target: T16, MYLK3 (Homo sapiens, UniProt Q32MK0); conditions: 100% no effect, 0% complete tracer displacement, read-out: Tracer bound
T16 construct: Full-length kinase ORF (Promega, Madison, WI, USA) cloned in frame with a NanoLuc-vector was transfected into HEK293T cells; host or cells: HEK293T
Description: as §1, §2

[17] = biological target: T17, NEK3 (Homo sapiens, UniProt P51956); conditions: 100% no effect, 0% complete tracer displacement, read-out: Tracer bound
T17 construct: Full-length kinase ORF (Promega, Madison, WI, USA) cloned in frame with a NanoLuc-vector was transfected into HEK293T cells; host or cells: HEK293T
T17 sequence (P51956 whole entry): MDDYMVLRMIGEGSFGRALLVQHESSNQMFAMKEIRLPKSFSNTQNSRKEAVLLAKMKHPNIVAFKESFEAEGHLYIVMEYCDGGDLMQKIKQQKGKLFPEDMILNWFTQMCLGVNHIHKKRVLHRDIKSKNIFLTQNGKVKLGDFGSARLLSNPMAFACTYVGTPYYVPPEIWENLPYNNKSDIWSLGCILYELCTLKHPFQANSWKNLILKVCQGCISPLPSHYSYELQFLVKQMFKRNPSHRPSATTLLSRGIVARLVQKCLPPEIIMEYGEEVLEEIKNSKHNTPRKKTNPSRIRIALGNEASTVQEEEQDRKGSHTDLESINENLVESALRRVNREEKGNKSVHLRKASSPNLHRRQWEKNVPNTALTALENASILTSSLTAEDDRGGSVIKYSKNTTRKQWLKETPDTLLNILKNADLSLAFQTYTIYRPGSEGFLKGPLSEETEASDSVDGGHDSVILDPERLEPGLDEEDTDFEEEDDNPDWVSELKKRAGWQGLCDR
Description: as §1, §2

[18] = biological target: T18, PRKAA1 (Homo sapiens, UniProt Q13131); conditions: 100% no effect, 0% complete tracer displacement, read-out: Tracer bound
T18 construct: Full-length kinase ORF (Promega, Madison, WI, USA) cloned in frame with a NanoLuc-vector was transfected into HEK293T cells; host or cells: HEK293T
Description: as §1, §2

[19] = biological target: T19, PRKCQ-PMA (Homo sapiens, UniProt Q04759); conditions: 100% no effect, 0% complete tracer displacement, read-out: Tracer bound
T19 construct: Full-length kinase ORF (Promega, Madison, WI, USA) cloned in frame with a NanoLuc-vector was transfected into HEK293T cells; host or cells: HEK293T
Description: as §1, §2

[20] = biological target: T20, RIOK2 (Homo sapiens, UniProt Q9BVS4); conditions: 100% no effect, 0% complete tracer displacement, read-out: Tracer bound
T20 construct: Full-length kinase ORF (Promega, Madison, WI, USA) cloned in frame with a NanoLuc-vector was transfected into HEK293T cells; host or cells: HEK293T
T20 sequence (Q9BVS4 whole entry): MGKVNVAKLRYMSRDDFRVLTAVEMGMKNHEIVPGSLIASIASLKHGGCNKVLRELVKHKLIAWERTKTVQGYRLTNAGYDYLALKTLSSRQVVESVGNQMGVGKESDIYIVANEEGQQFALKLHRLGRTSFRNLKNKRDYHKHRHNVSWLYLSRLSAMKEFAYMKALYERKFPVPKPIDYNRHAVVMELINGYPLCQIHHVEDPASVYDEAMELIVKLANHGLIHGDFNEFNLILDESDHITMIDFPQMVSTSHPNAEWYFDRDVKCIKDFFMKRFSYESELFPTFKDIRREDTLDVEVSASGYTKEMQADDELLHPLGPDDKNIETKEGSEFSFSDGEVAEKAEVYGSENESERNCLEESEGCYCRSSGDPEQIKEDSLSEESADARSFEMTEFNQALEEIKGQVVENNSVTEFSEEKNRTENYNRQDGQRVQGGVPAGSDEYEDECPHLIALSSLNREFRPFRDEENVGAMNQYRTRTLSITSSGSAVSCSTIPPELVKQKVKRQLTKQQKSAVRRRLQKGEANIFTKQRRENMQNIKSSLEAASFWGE
Description: as §1, §2

[21] = biological target: T21, RPS6KA1 (Homo sapiens, UniProt Q15418); conditions: 100% no effect, 0% complete tracer displacement, read-out: Tracer bound
T21 construct: Full-length kinase ORF (Promega, Madison, WI, USA) cloned in frame with a NanoLuc-vector was transfected into HEK293T cells; host or cells: HEK293T
Description: as §1, §2

[22] = biological target: T22, RPS6KA3 (Homo sapiens, UniProt P51812); conditions: 100% no effect, 0% complete tracer displacement, read-out: Tracer bound
T22 construct: Full-length kinase ORF (Promega, Madison, WI, USA) cloned in frame with a NanoLuc-vector was transfected into HEK293T cells; host or cells: HEK293T
Description: as §1, §2

[23] = biological target: T23, SIK3 (Homo sapiens, UniProt Q9Y2K2); conditions: 1 µM; 100% no effect, 0% complete tracer displacement
T23 construct: Full-length kinase ORF (Promega, Madison, WI, USA) cloned in frame with a NanoLuc-vector was transfected into HEK293T cells; host or cells: HEK293T
Description: as §1, §2

[24] = biological target: T24, SRMS (Homo sapiens, UniProt Q9H3Y6); conditions: 100% no effect, 0% complete tracer displacement, read-out: Tracer bound
T24 construct: Full-length kinase ORF (Promega, Madison, WI, USA) cloned in frame with a NanoLuc-vector was transfected into HEK293T cells; host or cells: HEK293T
T24 sequence (Q9H3Y6 whole entry): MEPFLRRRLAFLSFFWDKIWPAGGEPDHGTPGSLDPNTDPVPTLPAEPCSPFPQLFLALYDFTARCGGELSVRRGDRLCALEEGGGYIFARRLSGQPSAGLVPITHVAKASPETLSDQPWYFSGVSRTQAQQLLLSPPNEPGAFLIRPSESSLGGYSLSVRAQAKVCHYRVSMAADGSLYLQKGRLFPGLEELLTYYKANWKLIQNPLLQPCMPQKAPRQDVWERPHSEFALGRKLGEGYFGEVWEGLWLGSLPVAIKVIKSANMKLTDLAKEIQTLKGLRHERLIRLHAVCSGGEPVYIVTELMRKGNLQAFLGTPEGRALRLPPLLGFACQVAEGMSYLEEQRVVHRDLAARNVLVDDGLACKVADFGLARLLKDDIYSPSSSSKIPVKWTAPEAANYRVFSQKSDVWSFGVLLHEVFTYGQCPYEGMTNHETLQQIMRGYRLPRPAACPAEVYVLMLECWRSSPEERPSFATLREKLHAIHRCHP
Description: as §1, §2

[25] = biological target: T25, STK4 (Homo sapiens, UniProt Q13043); conditions: 1 µM; 100% no effect, 0% complete tracer displacement
T25 construct: Full-length kinase ORF (Promega, Madison, WI, USA) cloned in frame with a NanoLuc-vector was transfected into HEK293T cells; host or cells: HEK293T
T25 sequence (Q13043 whole entry): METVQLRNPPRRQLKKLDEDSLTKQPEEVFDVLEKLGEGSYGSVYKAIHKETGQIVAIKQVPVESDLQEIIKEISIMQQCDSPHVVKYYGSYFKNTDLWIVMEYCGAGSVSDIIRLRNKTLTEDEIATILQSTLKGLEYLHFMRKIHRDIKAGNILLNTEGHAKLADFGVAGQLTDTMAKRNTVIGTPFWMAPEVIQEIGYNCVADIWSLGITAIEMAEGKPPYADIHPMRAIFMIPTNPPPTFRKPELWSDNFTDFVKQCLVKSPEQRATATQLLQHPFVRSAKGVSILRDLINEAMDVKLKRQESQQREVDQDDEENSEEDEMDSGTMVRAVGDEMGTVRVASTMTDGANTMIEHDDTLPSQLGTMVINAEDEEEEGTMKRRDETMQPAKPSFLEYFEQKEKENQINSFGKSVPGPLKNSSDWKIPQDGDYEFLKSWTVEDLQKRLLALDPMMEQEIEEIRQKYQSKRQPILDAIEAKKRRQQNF
Description: as §1, §2

[26] = biological target: T26, TNK2 (Homo sapiens, UniProt Q07912); conditions: 100% no effect, 0% complete tracer displacement, read-out: Tracer bound
T26 construct: Full-length kinase ORF (Promega, Madison, WI, USA) cloned in frame with a NanoLuc-vector; host or cells: HEK293T
T26 sequence (Q07912 whole entry): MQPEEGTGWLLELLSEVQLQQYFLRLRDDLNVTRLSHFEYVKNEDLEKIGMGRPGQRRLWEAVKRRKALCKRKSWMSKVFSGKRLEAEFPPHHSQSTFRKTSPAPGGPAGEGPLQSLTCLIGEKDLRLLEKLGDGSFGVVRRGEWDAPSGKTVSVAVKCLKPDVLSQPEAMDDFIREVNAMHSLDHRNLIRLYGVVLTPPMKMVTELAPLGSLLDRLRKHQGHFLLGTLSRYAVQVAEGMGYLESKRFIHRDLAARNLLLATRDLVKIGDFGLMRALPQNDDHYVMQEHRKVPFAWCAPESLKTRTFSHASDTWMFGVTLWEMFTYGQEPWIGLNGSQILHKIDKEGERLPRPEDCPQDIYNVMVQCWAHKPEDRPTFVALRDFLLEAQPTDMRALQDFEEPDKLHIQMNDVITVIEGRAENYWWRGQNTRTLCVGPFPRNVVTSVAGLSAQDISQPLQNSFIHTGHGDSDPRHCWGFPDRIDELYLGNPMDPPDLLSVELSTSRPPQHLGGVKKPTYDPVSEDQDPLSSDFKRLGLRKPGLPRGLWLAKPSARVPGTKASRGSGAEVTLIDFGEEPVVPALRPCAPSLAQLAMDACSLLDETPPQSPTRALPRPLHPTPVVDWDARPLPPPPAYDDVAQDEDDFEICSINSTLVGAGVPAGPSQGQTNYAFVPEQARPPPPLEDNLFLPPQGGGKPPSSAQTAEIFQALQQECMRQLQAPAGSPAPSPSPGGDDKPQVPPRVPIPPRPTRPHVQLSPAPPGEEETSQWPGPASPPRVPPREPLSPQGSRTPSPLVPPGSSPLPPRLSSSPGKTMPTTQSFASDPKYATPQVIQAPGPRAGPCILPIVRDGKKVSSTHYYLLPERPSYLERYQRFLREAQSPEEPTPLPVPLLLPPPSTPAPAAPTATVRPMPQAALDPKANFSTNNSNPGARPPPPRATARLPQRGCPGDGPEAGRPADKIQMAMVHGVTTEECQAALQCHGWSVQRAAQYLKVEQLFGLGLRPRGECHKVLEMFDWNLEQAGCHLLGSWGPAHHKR
Description: as §1, §2

[27] = biological target: T27, TNNI3K (Homo sapiens, UniProt Q59H18); conditions: 100% no effect, 0% complete tracer displacement, read-out: Tracer bound
T27 construct: Full-length kinase ORF (Promega, Madison, WI, USA) cloned in frame with a NanoLuc-vector; host or cells: HEK293T
Description: as §1, §2

[28] = biological target: T28, ULK2 (Homo sapiens, UniProt Q8IYT8); conditions: 100% no effect, 0% complete tracer displacement, read-out: Tracer bound
T28 construct: Full-length kinase ORF (Promega, Madison, WI, USA) cloned in frame with a NanoLuc-vector; host or cells: HEK293T
Description: as §1, §2

[29] = biological target: T29, ULK3v1 (Homo sapiens, UniProt Q6PHR2); conditions: 1 µM; 100% no effect, 0% complete tracer displacement
T29 construct: Full-length kinase ORF (Promega, Madison, WI, USA) cloned in frame with a NanoLuc-vector; host or cells: HEK293T
T29 sequence (Q6PHR2 whole entry): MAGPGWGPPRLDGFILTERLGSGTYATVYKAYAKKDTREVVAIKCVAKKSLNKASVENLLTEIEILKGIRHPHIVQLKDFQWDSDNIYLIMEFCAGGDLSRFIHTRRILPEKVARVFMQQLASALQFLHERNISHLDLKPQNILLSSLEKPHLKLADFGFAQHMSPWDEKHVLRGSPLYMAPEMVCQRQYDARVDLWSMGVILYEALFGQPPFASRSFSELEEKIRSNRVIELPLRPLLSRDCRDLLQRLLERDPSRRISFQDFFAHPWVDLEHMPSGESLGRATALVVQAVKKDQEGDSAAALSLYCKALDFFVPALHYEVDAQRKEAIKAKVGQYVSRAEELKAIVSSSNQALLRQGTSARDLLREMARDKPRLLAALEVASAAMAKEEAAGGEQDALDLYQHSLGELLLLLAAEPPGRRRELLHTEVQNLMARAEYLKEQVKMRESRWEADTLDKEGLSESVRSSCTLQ
Description: as §1, §2

[30] = biological target: T30, WEE2 (Homo sapiens, UniProt P0C1S8); conditions: 100% no effect, 0% complete tracer displacement, read-out: Tracer bound
T30 construct: Full-length kinase ORF (Promega, Madison, WI, USA) cloned in frame with a NanoLuc-vector; host or cells: HEK293T
Description: as §1, §2

CNC(=O)c1cc(Oc2ccc(NC(=O)Nc3cc(C(C)(C)C)on3)cc2)ccn1 [MA68, reference compound]
remaining activity at 1 µM [1]: 76.4%
remaining activity at 1 µM [2]: 102%
remaining activity at 1 µM [3]: 102%
remaining activity at 1 µM [4]: 13.9%
remaining activity at 1 µM [5]: 86.1%
Tracer bound [6]: 95.1%
remaining activity at 1 µM [7]: 110%
remaining activity at 1 µM [8]: 113%
remaining activity at 1 µM [9]: 120%
remaining activity at 1 µM [10]: 69.2%
remaining activity at 1 µM [11]: 111%
remaining activity at 1 µM [12]: 101%
remaining activity at 1 µM [13]: 113%
remaining activity at 1 µM [14]: 15.3%
remaining activity at 1 µM [15]: 6%
remaining activity at 1 µM [16]: 119%
remaining activity at 1 µM [17]: 120%
remaining activity at 1 µM [18]: 114%
remaining activity at 1 µM [19]: 108%
remaining activity at 1 µM [20]: 109%
remaining activity at 1 µM [21]: 108%
remaining activity at 1 µM [22]: 118%
Tracer bound [23]: 113.2%
remaining activity at 1 µM [24]: 94.4%
Tracer bound [25]: 98.8%
remaining activity at 1 µM [26]: 116%
remaining activity at 1 µM [27]: 15.1%
remaining activity at 1 µM [28]: 91.7%
Tracer bound [29]: 96.1%
remaining activity at 1 µM [30]: 102%
